The source of these data is patent publication US11970474B2, “Substituted benzodiazoles and use thereof in therapy” (THOMAS HELLEDAYS STIFTELSE FÖR MEDICINSK FORSKNING, priority 2018, dated 2024).

Where two headings read alike, the source gives them in different places. Bounds are passed on as bounds.

One assay has as its system MLE12 cells. Briefly: Cell viability assay in MLE12 cells (resazurin). It counts as cell-based, mouse. Particulars: TNF-α 20 ng/ml, resazurin added after 24 hours culture. In short, it runs like this: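 MLE12 cells (7500 cells/well) were seeded onto 11-point duplicate compound dose-responses, with TNF-α (final 20 ng/ml) added after 1 hour at 37° C. After 24 hours, resazurin was added for 6 hours and resorufin fluorescence read (ex544 nm/em595 nm). EC50 values were calculated by curve fitting.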

A further assay concerns CCL2. In words: Mouse CCL2 assay in MLE12 cells. The format is cell-based. The following applies: MLE12 cells, TNF-α 20 ng/ml, supernatant after 30 hours, HTRF, read-out: CCL2 (EC50). Summed up:
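CCL2 in supernatants was quantified by two-antibody HTRF FRET, read at 620 and 665 nm after overnight RT incubation, with IC50 derived from delta ratios. Cells were SV40-transformed mouse MLE12, treated with duplicate 6-point compound series for 1 h before 30 h TNF-α (20 ng/ml final) stimulation.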

The next assay has as its target OGG1 (Homo sapiens (Human), UniProt O15527). Briefly: In vitro OGG1 activity assay. It counts as biochemical. The following applies: 800 pM OGG1 enzyme, 2 nM human APEX1, 10 nM 8-oxoA:C substrate. Summed up: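 Read-out is fluorescein fluorescence, with compounds in DMSO added first, then enzyme and substrate. OGG1 excises its substrate base from a quenched fluorophore-labelled duplex, and surplus APEX1 cuts the resulting apurinic site. The duplex then melts and fluorescence rises in proportion to glycosylase activity.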

Chain of OGG1 (O15527 whole entry): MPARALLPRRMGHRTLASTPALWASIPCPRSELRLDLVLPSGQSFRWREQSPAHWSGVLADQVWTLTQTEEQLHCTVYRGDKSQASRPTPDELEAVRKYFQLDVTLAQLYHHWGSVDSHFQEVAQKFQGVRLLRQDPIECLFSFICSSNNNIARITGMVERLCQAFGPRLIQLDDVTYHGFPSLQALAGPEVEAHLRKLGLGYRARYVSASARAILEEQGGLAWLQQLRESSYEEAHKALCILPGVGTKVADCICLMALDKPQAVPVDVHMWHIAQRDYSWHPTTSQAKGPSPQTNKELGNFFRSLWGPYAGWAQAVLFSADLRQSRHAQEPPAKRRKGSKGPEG

Turning to `O=c1[nH]c2c(Br)cccc2n1[C@H]1CC[C@@H](C(=O)Nc2ccc3c(c2)OCCO3)CC1` [Example 197, Cis-4-(4-bromo-2-oxo-2,3-dihydro-1H-1,3-benzodiazol-1-yl)-N-(2,3-dihydro-1,4-benzodioxin-6-yl)cyclohexane-1-carboxamide], the IC50 in the assay on MLE12 cells (Mus musculus, MLE12, 24 h) stood at 19.5 µM; at OGG1, 0.0389 µM. Also, the EC50 in the assay on CCL2 (Mus musculus, MLE12, 30 h) worked out at 30.2 µM.
On the same counts, the results for `Cc1ccc(NC(=O)[C@H]2CC[C@@H](n3c(=O)[nH]c4c(Cl)cccc43)CC2)cc1` [Example 149, (Cis)-4-(4-chloro-2-oxo-2,3-dihydro-1H-1,3-benzodiazol-1-yl)-N-(4-methylphenyl)cyclohexane-1-carboxamide] are 16.7 µM, 0.086 µM and 33.7 µM.
Take `COc1cc(NC(=O)[C@H]2CC[C@@H](n3c(=O)[nH]c4c(N(C)Cc5ccccc5)cccc43)CC2)ccc1C` [Example 243, Cis-4-{4-[benzyl(methyl)amino]-2-oxo-2,3-dihydro-1H-1,3-benzodiazol-1-yl}-N-(3-methoxy-4-methylphenyl)cyclohexane-1-carboxamide]: the IC50 was determined as 5.74 µM in the assay on MLE12 cells (Mus musculus, MLE12, 24 h) and 1.47 µM against OGG1. The EC50 in the assay with CCL2 (Mus musculus, MLE12, 30 h) turned out to be 14.7 µM.
The corresponding values for `Cc1ccc(NC(=O)[C@H]2CC[C@@H](n3c(=O)[nH]c4c(Br)cccc43)CC2)cc1` [Example 139, (Cis)-4-(4-bromo-2-oxo-2,3-dihydro-1H-1,3-benzodiazol-1-yl)-N-(4-methylphenyl)cyclohexane-1-carboxamide] are 10.1 µM, 0.058 µM and 31.8 µM.
On to `O=C(Nc1ccc(Cl)c(F)c1)N1C2CCC1CC(n1c(=O)[nH]c3c(-c4ccc(CO)nc4)cccc31)C2` (stereo not drawn) [Example 94, N-(4-chloro-3-fluorophenyl)-3-{4-[6-(hydroxymethyl)pyridin-3-yl]-2-oxo-2,3-dihydro-1H-1,3-benzodiazol-1-yl}-(endo)-8-azabicyclo[3.2.1]octane-8-carboxamide], for which the IC50 in the assay with MLE12 cells (Mus musculus, MLE12, 24 h) amounted to 8.45 µM; against OGG1, 0.105 µM. Further, the EC50 in the assay with CCL2 (Mus musculus, MLE12, 30 h) was 20.2 µM.
As for `COCC(=O)Nc1cccc2c1[nH]c(=O)n2[C@H]1CC[C@@H](C(=O)Nc2ccc(C)c(OC)c2)CC1` [Example 250, Cis-N-(3-methoxy-4-methylphenyl)-4-[4-(2-methoxyacetamido)-2-oxo-2,3-dihydro-1H-1,3-benzodiazol-1-yl]cyclohexane-1-carboxamide], the IC50 with MLE12 cells (Mus musculus, MLE12, 24 h) is 26 µM; at OGG1 it was 0.0235 µM. Also, in the assay with CCL2 (Mus musculus, MLE12, 30 h), the EC50 was 39.9 µM.
For the compound `COc1cc(NC(=O)[C@H]2CC[C@@H](n3c(=O)[nH]c4c(C(=O)NCC5CCCO5)cccc43)CC2)ccc1C` (stereo partly drawn) [Example 273, 2-Oxo-N-[(oxolan-2-yl)methyl]-1-[cis-4-[(3-methoxy-4-methylphenyl)carbamoyl]cyclohexyl]-2,3-dihydro-1H-1,3-benzodiazole-4-carboxamide], the IC50 in the assay on MLE12 cells (Mus musculus, MLE12, 24 h) came to 19.2 µM; against OGG1, 0.0175 µM. Moreover, the EC50 in the assay on CCL2 (Mus musculus, MLE12, 30 h) is 32.6 µM.
As to `O=c1[nH]c2c(Br)cccc2n1[C@H]1CC[C@@H](C(=O)Nc2ccc(Cl)cc2)CC1` [Example 119, (Cis)-4-(4-bromo-2-oxo-2,3-dihydro-1H-1,3-benzodiazol-1-yl)-N-(4-chlorophenyl)cyclohexane-1-carboxamide], the IC50 in the assay with MLE12 cells (Mus musculus, MLE12, 24 h) came out at 5.07 µM; against OGG1 it was 0.072 µM. In the assay with CCL2 (Mus musculus, MLE12, 30 h), the EC50 is 17.7 µM.
`O=c1[nH]c2c(Br)cccc2n1[C@H]1CC[C@@H](C(=O)Nc2ccccc2)CC1` [Example 127, (Cis)-4-(4-bromo-2-oxo-2,3-dihydro-1H-1,3-benzodiazol-1-yl)-N-phenylcyclohexane-1-carboxamide]: the IC50 in the assay on MLE12 cells (Mus musculus, MLE12, 24 h) stood at 16.2 µM; on OGG1, 1.22 µM. Moreover, in the assay on CCL2 (Mus musculus, MLE12, 30 h), the EC50 is 28.7 µM.
On the same counts, the results for `COc1cc(NC(=O)N2CCC(n3c(=O)[nH]c4c(Br)cccc43)CC2)ccc1Cl` [Example 77, 4-(4-Bromo-2-oxo-2,3-dihydro-1H-1,3-benzodiazol-1-yl)-N-(4-chloro-3-methoxyphenyl)piperidine-1-carboxamide] are 7.4 µM, 0.358 µM and 21.2 µM.
The corresponding values for `COc1cc(NC(=O)[C@H]2CC[C@@H](n3c(=O)[nH]c4c(N(C)CCCN)cccc43)CC2)ccc1C` [Example 302, Cis-4-{4-[(3-aminopropyl)(methyl)amino]-2-oxo-2,3-dihydro-1H-1,3-benzodiazol-1-yl}-N-(3-methoxy-4-methylphenyl)cyclohexane-1-carboxamide] are 14.4 µM, 0.0164 µM and 27.2 µM.
With `COc1cc(NC(=O)[C@H]2CC[C@@H](n3c(=O)[nH]c4c(N(C)CCN(C)C)cccc43)CC2)ccc1C` [Example 229, Cis-4-(4-{[2-(dimethylamino)ethyl](methyl)amino}-2-oxo-2,3-dihydro-1H-1,3-benzodiazol-1-yl)-N-(3-methoxy-4-methylphenyl)cyclohexane-1-carboxamide], the IC50 in the assay with MLE12 cells (Mus musculus, MLE12, 24 h) came to 9.19 µM; in the assay on MLE12 cells it was 6.67 µM; against OGG1 it was 0.0298 µM. Besides, the EC50 was 6.93 µM with CCL2 and 12.2 µM with CCL2 (Mus musculus, MLE12, 30 h).
With `Cc1n[nH]c2ccc(NC(=O)[C@H]3CC[C@@H](n4c(=O)[nH]c5c(Br)cccc54)CC3)cc12` [Example 199, Cis-4-(4-bromo-2-oxo-2,3-dihydro-1H-1,3-benzodiazol-1-yl)-N-(3-methyl-1H-indazol-5-yl)cyclohexane-1-carboxamide], the half-maximal inhibitory concentration (IC50) in the assay with MLE12 cells (Mus musculus, MLE12, 24 h) turned out to be 7.51 µM; at OGG1, 0.494 µM. The EC50 in the assay on CCL2 (Mus musculus, MLE12, 30 h) was found to be 16.5 µM.
Regarding `COc1cc(NC(=O)[C@H]2CC[C@@H](n3c(=O)[nH]c4c(C(=O)N(C)C5CCN(C)C5)cccc43)CC2)ccc1C` (stereo partly drawn) [Example 277, N-Methyl-N-(1-methylpyrrolidin-3-yl)-2-oxo-1-[cis-4-[(3-methoxy-4-methylphenyl)carbamoyl]cyclohexyl]-2,3-dihydro-1H-1,3-benzodiazole-4-carboxamide], the IC50 was 15 µM with MLE12 cells (Mus musculus, MLE12, 24 h) and 0.0482 µM against OGG1. The EC50 in the assay on CCL2 (Mus musculus, MLE12, 30 h) was 28.6 µM.
For the compound `COc1cc(NC(=O)[C@H]2CC[C@@H](n3c(=O)[nH]c4c(N5CCC(NC(C)=O)C5)cccc43)CC2)ccc1C` (stereo partly drawn) [Example 313, Cis-4-[4-(3-acetamidopyrrolidin-1-yl)-2-oxo-2,3-dihydro-1H-1,3-benzodiazol-1-yl]-N-(3-methoxy-4-methylphenyl)cyclohexane-1-carboxamide], the half-inhibitory concentration (IC50) in the assay with MLE12 cells (Mus musculus, MLE12, 24 h) was found to be 19.5 µM; against OGG1, 0.0213 µM. The EC50 in the assay on CCL2 (Mus musculus, MLE12, 30 h) came out at 35.1 µM.
As to `COCCOc1cccc2c1[nH]c(=O)n2[C@H]1CC[C@@H](C(=O)Nc2ccc(C)c(OC)c2)CC1` [Example 245, Cis-N-(3-methoxy-4-methylphenyl)-4-[4-(2-methoxyethoxy)-2-oxo-2,3-dihydro-1H-1,3-benzodiazol-1-yl]cyclohexane-1-carboxamide], the IC50 in the assay on MLE12 cells (Mus musculus, MLE12, 24 h) is 12.5 µM; on OGG1 it was 2.76 µM. For the same compound, the EC50 with CCL2 (Mus musculus, MLE12, 30 h) was more than 33 µM.
Turning to `O=C(Nc1ccc(I)cc1)N1CCC(n2c(=O)[nH]c3c(-n4cccn4)cccc32)CC1` [Example 22, N-(4-iodophenyl)-4-[2-oxo-4-(1H-pyrazol-1-yl)-2,3-dihydro-1H-1,3-benzodiazol-1-yl]piperidine-1-carboxamide], the IC50 in the assay on MLE12 cells (Mus musculus, MLE12, 24 h) was found to be 13.8 µM; against OGG1, 0.848 µM. Also, the EC50 with CCL2 (Mus musculus, MLE12, 30 h) was 52.7 µM.
